Tests used:
[1] = Liver Microsome Stability Assay (rat); conditions: rat liver microsomes, with NADPH, 1.0 uM compound
Procedure: (§1) Stability of a compound was assessed in the presence of liver microsomes from various sources—mouse, rat, monkey and human liver microsomes. 1.0 uM compound, 0.4% DMSO in 0.1 M Potassium Phosphate with 1.0 mg/mL liver microsomes, were incubated at 37° C. with or without 1 mM NADPH. The samples were quenched at 0, and 30 minutes.

[2] = Liver Microsome Stability Assay (human); conditions: human liver microsomes, with NADPH, 1.0 uM compound
Procedure: as §1

[3] = system: multiple myeloma cell line NCI-H929; assay: H929 Cell Viability Assay; assay type: cell-based, human; conditions: Homo sapiens, NCI-H929, 48 h, NCI-H929 cells, Celltiter-Glo
In short: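 NCI-H929 cells, resuspended in RPMI 1640 with 10% FBS and 2 mM glutamine, were treated with compound dilutions in DMSO/media and incubated 48 hours at 37° C, 5% CO2. Viability was read by CellTiter-Glo luminescence. Compounds drawn without stereochemistry were tested as stereoisomer mixtures.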

[4] = Liver Microsome Stability Assay (mouse); conditions: mouse liver microsomes, with NADPH, 1.0 uM compound
Procedure: as §1

[5] = system: HER3-ss+4aa/Gaussia Luciferase; assay: Dox-Induced Her3-ss-Gluc Assay; assay type: cell-based; conditions: 24 hr Dox induction; 293FRT/TO cells; read-out: 24 hr Dox Inducible Her3(ss + 4)Gluc 293FRT/TO: Mean IC50
In short: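 Stable Flp-In 293 T-REx line expressing Gaussia luciferase fused to the HER3 signal sequence plus 4 amino acids under tetracycline-regulated (T-REx) control. Cells plated the day before, then treated with compound dilutions in DMSO/media containing doxycycline and incubated at 37° C., 5% CO2.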

[6] = system: multiple myeloma cell line U266B1; assay: U266 Cell Viability Assay; assay type: cell-based, human; conditions: Homo sapiens, U-266, 48 h, U266B1 cells, Celltiter-Glo
In short: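 Cells grown in RPMI 1640 with 10% FBS, 2 mM glutamine and penicillin/streptomycin were exposed to compound dilutions in DMSO/media for 48 hours at 37° C., 5% CO2. Viability was read by CellTiter-Glo luminescence. Undefined stereocentres mean data for stereoisomer mixtures.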

[7] = system: TNFα-FL/Gaussia Luciferase; assay: Dox Induced TNFα-FL-Gluc Assay; assay type: cell-based; conditions: for IC50: 24 hr Dox induction, 293FRT/TO cells, read-out: 24 hr Dox Inducible TNFaFLGluc 293FRT/TO: Mean IC50; for 24 hr Dox Inducible TNFaFLGluc 293FRT/TO: TNF/PD1: ratio of TNFaFLGluc IC50 to PD1ssGluc IC50
In short: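 Flp-In 293 T-REx cells stably expressing full-length TNFα (aa 1-233) fused at its C-terminus to Gaussia luciferase under tetracycline-regulated control were plated the day before assay. Compound dilutions in DMSO/media containing doxycycline were added and incubated at 37 °C, 5% CO2. Unspecified stereochemistry denotes stereoisomer mixtures.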

[8] = system: IL-2-FL/Gaussia Luciferase; assay: Dox Induced IL2-FL-Gluc Assay; assay type: cell-based; conditions: for IC50: 24 hr Dox induction, 293FRT/TO cells, read-out: 24 hr Dox Inducible IL2FLGluc 293FRT/TO: Mean IC50; for 24 hr Dox Inducible IL2FLGluc 293FRT/TO: IL2/PD1: ratio of IL2FLGluc IC50 to PD1ssGluc IC50
In short: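 Flp-In 293 T-REx cells stably carrying doxycycline-inducible full-length IL-2 (aa 1-153) fused at its C-terminus to Gaussia luciferase, selected with hygromycin and blasticidin. Cells were plated the day before, then treated with compounds in DMSO/media containing doxycycline at 37° C, 5% CO2.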

[9] = Liver Microsome Stability Assay (monkey); conditions: monkey liver microsomes, with NADPH, 1.0 uM compound
Procedure: as §1

[10] = system: PD1-ss+10aa/Gaussia Luciferase; assay: Dox-Induced PD1-ss-Gluc Assay; assay type: cell-based; conditions: 24 hr Dox induction; 293FRT/TO cells; read-out: 24 hr Dox Inducible PD1ssGluc 293FRT/TO: Mean IC50
In short: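 Stable Flp-In 293 T-REx cells carried a doxycycline-inducible construct of Gaussia luciferase fused to the PD1 signal sequence plus 10 amino acids. Cells were plated the day before, then treated with compound dilutions in DMSO/media containing doxycycline at 37 °C, 5% CO2.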

Row | SMILES | Liver Microsome Stability (Multiple Species): Rat - % Remaining after 30 min w/NADPH [1] | Liver Microsome Stability (Multiple Species): Human - % Remaining after 30 min w/NADPH [2] | EC50 [3] | Liver Microsome Stability (Multiple Species): Mouse - % Remaining after 30 min w/NADPH [4] | IC50 [5] | EC50 [6] | IC50 [7] | IC50 [8] | Liver Microsome Stability (Multiple Species): Monkey - % Remaining after 30 min w/NADPH [9] | IC50 [10] | 24 hr Dox Inducible TNFaFLGluc 293FRT/TO: TNF/PD1 [7] | 24 hr Dox Inducible IL2FLGluc 293FRT/TO: IL2/PD1 [8]
1 | CC(C)n1cnc(-c2cccc(-c3csc(NC(=O)c4cccn4Cc4ccnc(F)c4)n3)c2)c1 [Compound A167, 1-((2-fluoropyridin-4-yl)methyl)-N-(4-(3-(1-isopropyl-1H-imidazol-4-yl)phenyl)thiazol-2-yl)-1H-pyrrole-2-carboxamide] | 13% | 0.06% | > 25000 nM | 12% | 603 nM | > 25000 nM | > 25000 nM | 1450 nM | 0.15% | 362 nM | >69.1 | 4
2 | O=C(Nc1nc(-c2ccccc2-c2ccccn2)cs1)c1cccn1Cc1ccnc(F)c1 [Compound A168, 1-((2-fluoropyridin-4-yl)methyl)-N-(4-(2-(pyridin-2-yl)phenyl)thiazol-2-yl)-1H-pyrrole-2-carboxamide] | 0.52% | 0.45% | 2710 nM | 0.09% | 60.5 nM | > 25000 nM | 569 nM | 53.7 nM | 0.02% | 35 nM | 16.3 | 1.5
3 | CC(C)n1cnc(-c2ccccc2-c2csc(NC(=O)c3cccn3Cc3ccnc(F)c3)n2)c1 [Compound A169, 1-((2-fluoropyridin-4-yl)methyl)-N-(4-(2-(1-isopropyl-1H-imidazol-4-yl)phenyl)thiazol-2-yl)-1H-pyrrole-2-carboxamide] | 0.02% | 0.17% | 7810 nM | 0.08% | 1640 nM | 15000 nM | 6900 nM | 2170 nM | 0.11% | 967 nM | 7.13 | 2.2
4 | COC(=O)Nc1ccc(N2CCC[C@@H]2c2csc(NC(=O)c3cc(C)cn3Cc3ccnc(F)c3)n2)cc1 [Compound A172, methyl (R)-(4-(2-(2-(1-((2-fluoropyridin-4-yl)methyl)-4-methyl-1H-pyrrole-2-carboxamido)thiazol-4-yl)pyrrolidin-1-yl)phenyl)carbamate] | 19.7% | 65.3% | 190 nM | 44.9% | 5.18 nM | > 25000 nM | 50.4 nM | 5.99 nM | 43.3% | 2.66 nM | 19 | 2.3
5 | COC(=O)Nc1ccc(N2CCC[C@@H]2c2csc(NC(=O)c3cccn3Cc3ccnc(F)c3)n2)nc1 [Compound A175, methyl (R)-(6-(2-(2-(1-((2-fluoropyridin-4-yl)methyl)-1H-pyrrole-2-carboxamido)thiazol-4-yl)pyrrolidin-1-yl)pyridin-3-yl)carbamate] | 0.32% | 1.38% | 188 nM | 1.57% | 7.95 nM | > 25000 nM | 80.7 nM | 12.9 nM | 0.22% | 3.02 nM | 26.7 | 4.3

Further lines, with some results ahead:

Row | Liver Microsome Stability (Multiple Species): Rat - % Remaining after 30 min w/NADPH [1] | Liver Microsome Stability (Multiple Species): Human - % Remaining after 30 min w/NADPH [2] | EC50 [3] | Liver Microsome Stability (Multiple Species): Mouse - % Remaining after 30 min w/NADPH [4] | IC50 [5] | EC50 [6] | IC50 [7] | IC50 [8] | Liver Microsome Stability (Multiple Species): Monkey - % Remaining after 30 min w/NADPH [9] | IC50 [10] | SMILES | 24 hr Dox Inducible TNFaFLGluc 293FRT/TO: TNF/PD1 [7] | 24 hr Dox Inducible IL2FLGluc 293FRT/TO: IL2/PD1 [8]
6 | 2.02% | 0.58% | 5710 nM | 1.37% | 81.1 nM | > 25000 nM | 687 nM | 83.4 nM | 2.6% | 68.3 nM | O=C(Nc1nc([C@H]2CCCN2c2ccc(OC3CCSCC3)cc2)cs1)c1cccn1Cc1ccnc(F)c1 [Compound A170, (R)-1-((2-fluoropyridin-4-yl)methyl)-N-(4-(1-(4-((tetrahydro-2H-thiopyran-4-yl)oxy)phenyl)pyrrolidin-2-yl)thiazol-2-yl)-1H-pyrrole-2-carboxamide] | 10.1 | 1.2
7 | 16% | 36.8% | 159 nM | 17.3% | 4.33 nM | > 25000 nM | 71.9 nM | 6.54 nM | 28.5% | 3.57 nM | O=C(Nc1ccc(N2CCC[C@@H]2c2csc(NC(=O)c3cccn3Cc3ccnc(F)c3)n2)cc1)O[C@@H]1CCOC1 [Compound A171, (R)-tetrahydrofuran-3-yl (4-((R)-2-(2-(1-((2-fluoropyridin-4-yl)methyl)-1H-pyrrole-2-carboxamido)thiazol-4-yl)pyrrolidin-1-yl)phenyl)carbamate] | 20.1 | 1.8
8 | 17.4% | 70.3% | 842 nM | 23.8% | 26.9 nM | 8750 nM | 323 nM | 40.4 nM | 54.6% | 15.9 nM | CN1CC(OC(=O)Nc2ccc(N3CCC[C@@H]3c3csc(NC(=O)c4cccn4Cc4ccnc(F)c4)n3)cc2)C1 [Compound A173, 1-methylazetidin-3-yl (R)-(4-(2-(2-(1-((2-fluoropyridin-4-yl)methyl)-1H-pyrrole-2-carboxamido)thiazol-4-yl)pyrrolidin-1-yl)phenyl)carbamate] | 20.3 | 2.5
9 | 42.5% | 38% | 77.4 nM | 29.4% | 6.19 nM | > 25000 nM | 81.1 nM | 8.01 nM | 15.4% | 2.62 nM | O=C(Nc1ccc(N2CCC[C@@H]2c2csc(NC(=O)c3cccn3Cc3ccnc(F)c3)n2)cc1)O[C@H]1CCOC1 [Compound A174, (S)-tetrahydrofuran-3-yl (4-((R)-2-(2-(1-((2-fluoropyridin-4-yl)methyl)-1H-pyrrole-2-carboxamido)thiazol-4-yl)pyrrolidin-1-yl)phenyl)carbamate] | 30.9 | 3.1
